Results published in patent publication US20080234244A1, “CU[…] AND USES THEREOF” (priority 2007, published 2008).

How the values were obtained:
[1] = test system: Erk1/2 activation in K562 cells; experiment: Western blot of phosphorylated and total Erk1/2; type: cell-based, human; conditions: 50 μM, 5 minutes treatment
Method: (§1) K562 leukemia cells were serum starved for 18 hours prior to cucurbitacin B treatment. The cells were incubated at a 75-mm culture flask filled with 10 ml growth medium (RPMI with 10% FBS and 1% PS) at the cell density of 1×10^5 cells/ml in the presence or absence of cucurbitacin B for various time intervals. The drug treatment were terminated by centrifugation at 1500 rpm for 5 minutes and the cells were rinsed twice with phosphate-buffered saline and lysed at 4° C. in a lysis buffer containing 50 mM Tris-HCl, pH7.5, […], 5 mM EDTA, 40 mM NaP2O7, 1% Triton X-100, 1 mM dithiothreitol, […], 100 μM phenylmethylsulfonyl fluoride, 2 μg/ml leupeptin, 4 μg/ml aprotinin and 0.7 μg/ml pepstatin. The insoluble protein lysate were removed by centrifugation for 10 minutes at 13000 rpm. Fifteen micrograms of protein lysate was resolved using SDS-polyacryamide gel electrophoresis (PAGE) (usually 8%-12% polyacrylamide gel) and then subjected to western blot analysis. Western blots were performed with antibodies specific for phosphorylated and total Stat3, c-Raf, Mek, and Erk. […]
(§2) In order to further investigate if cucurbitacin B block the Stat3 activation is truly through Erk pathway in K562 cells, the ability of cucurbitacin B to inhibit the Ras/Raf/Mek/Erk pathway was determined by measuring Ras-GTP, phosphorylation of c-Raf, Mek1/2, Erk1/2 and Elk-1 in K562 cells. […]

[2] = test system: Human leukemia cell lines CCRF-CEM, K562, MOLT-4, RPMI-8226 and SR; experiment: Cell proliferation assay using SRB, 5 human leukemia cell lines; type: cell-based; conditions: 48 hours treatment, range over the 5 cell lines, read-out: GI50 (growth inhibition), all leukemia cell lines
Method: (§3) Human leukemia cell lines CCRF-CEM, K562, MOLT-4, RPMI-8226 and SR, purchased from the National Cancer Institute (NCI), were cultured in RPMI 1640 medium supplemented with 5% (v/v) fetal […] and 100 units/ml penicillin and 100 units/ml streptomycin in a humidified 5% CO2 atmosphere at 37° C.
(§4) All 5 human leukemia cells were screened by the cell proliferation assay using SRB to quantitative cell protein mass following cucurbitacin B treatment. The experiments were repeated in triplicate. Appropriate number of cells (depends on the doubling time of cells) were seeded into a 96-well tissue culture plate and growth in the indicated medium in presence of different dosages of cucurbitacin B for 2 days. Afterwards 25 μl 80% TCA reagent was added into each well to fix the cells and the plates were incubated at 4° C. at least for 1 hour. Then the plates were washed with tap water and air dried. […] The plates were air dried and dissolved by 100 μl 10 mM Trizma-base solution and the absorbance was measured at 515 nm using FLUOstar OPTIMA equipment.
(§5) Appropriate number of cell density were seeded into a 96 well culture plate and treated with different doses of cucurbitacin B for 2 days. The growth inhibition effects of cucurbitacin B on the cells were detected using SRB.

K562 cells [3] = experiment: Flow cytometry for apoptosis analysis (Annexin V / PI); type: cell-based, human; conditions: 80 nM, 48 hours, K562, Anx.V/PI
Method: (§6) 10^5/ml K562 cells were treated with cucurbitacin B in the presence of complete medium containing 10% FBS for 48 hours. The changes in cell morphology were visualized using Leica DMIL (Leica Microsystem). Cells were harvested and rinsed twice with ice-cold PBS (pH7.4) and a total 2.5×10^5 K562 cells were stained with 10 μl Annexin V and 10 μl propidium iodide in 100 μl 1× binding buffer for 15 minutes in dark and then subjected to apoptosis analysis with FACSCalibar Flow cytometer system (FACS Calibur BD Flow Cytometer).
Appropriate number of cell density were seeded into T-25 culture flask and treated with different doses of cucurbitacin B for 2 days. The apoptotic effects of cucurbitacin B on the cells were detected using Flow Cytometry analysis after stained with Anx.V and PI for 15 minutes. […] Cucuribitacin B induced apoptosis in a dose dependent manner, among them, 80 nM induced the highest apoptotic effect in K562 cells, with over 50% cells in apoptotic population and 10% cells in the necrotic population (late apoptotic and necrotic phase). The effect of cucurbitacin B on apoptosis and cell cycle profile in K562 cells were analyzed using flow cytometry, as depicted in FIG. 3.

[4] = test system: c-Raf activation in K562 cells; experiment: Western blot of phosphorylated and total c-Raf; type: cell-based, human; conditions: 50 μM, 5 minutes treatment
Method: as §1, §2

[5] = test system: Stat3 activation in K562 cells; experiment: Western blot of phosphorylated and total Stat3; type: cell-based, human; conditions: 50 μM
Method: K562 leukemia cells were serum starved for 18 hours prior to cucurbitacin B treatment. The cells were incubated at a 75-mm culture flask filled with 10 ml growth medium (RPMI with 10% FBS and 1% PS) at the cell density of 1×10^5 cells/ml in the presence or absence of cucurbitacin B for various time intervals. The drug treatment were terminated by centrifugation at 1500 rpm for 5 minutes and the cells were rinsed twice with phosphate-buffered saline and lysed at 4° C. in a lysis buffer containing 50 mM Tris-HCl, pH7.5, […], 5 mM EDTA, 40 mM NaP2O7, 1% Triton X-100, 1 mM dithiothreitol, […], 100 μM phenylmethylsulfonyl fluoride, 2 μg/ml leupeptin, 4 μg/ml aprotinin and 0.7 μg/ml pepstatin. The insoluble protein lysate were removed by centrifugation for 10 minutes at 13000 rpm. Fifteen micrograms of protein lysate was resolved using SDS-polyacryamide gel electrophoresis (PAGE) (usually 8%-12% polyacrylamide gel) and then subjected to western blot analysis. Western blots were performed with antibodies specific for phosphorylated and total Stat3, c-Raf, Mek, and Erk. The blots were developed with the Enhanced Chemiluminescence Plus (ECL Plus) detection system (Amersham).
15 μg cell lysate of each sample was separated in 8% SDS-PAGE followed by immuno-blotting with anti-Stat3 antibodies to detect the phosphorylated form of Stat3 as well as its total expression level.
Cells were serum starved for 18 hours followed by treated with 50 μM cucurbitacin B for 10 minutes, 30 minutes, 1 hour and 4 hours, respectively. 15 μg cell lysate of each sample was separated in 8% SDS-PAGE followed by immuno-blotting with anti-Stat3 antibodies to detect the phosphorylated form of Stat3 as well as its total expression level.

[6] = test system: Elk-1 activation in K562 cells; experiment: Phosphorylation of Elk-1; type: cell-based, human; conditions: 50 μM, 5 minutes treatment
Method: (§7) In order to further investigate if cucurbitacin B block the Stat3 activation is truly through Erk pathway in K562 cells, the ability of cucurbitacin B to inhibit the Ras/Raf/Mek/Erk pathway was determined by measuring Ras-GTP, phosphorylation of c-Raf, Mek1/2, Erk1/2 and Elk-1 in K562 cells. The cells were incubated with 50 μM cucurbitacin B for the indicated time intervals (2 minutes, 5 minutes, 10 minutes, 30 minutes, 1 hour and 4 hours). 15 μg cell lysates were subjected to western blot analysis for phosphorylation and total c-Raf, Mek1/2, Erk1/2.

[7] = test system: Raf/Mek/Erk pathway in K562 cells; experiment: Western blot, Raf/Mek/Erk pathway as a whole; type: cell-based, human; conditions: 50 μM, after 4 hours of treatment
Method: as §1, §2

[8] = test system: Mek1/2 activation in K562 cells; experiment: Western blot of phosphorylated and total Mek1/2; type: cell-based, human; conditions: 50 μM, 5 minutes treatment
Method: as §1, §2

K562 cells [9] = experiment: Cell morphology by microscopy (Leica DMIL, 400x); type: cell-based, human; conditions: 48 hours
Method: as §6
After 48 hours of cucurbitacin B treatment, the cells were viewed using a Leica DMIL microscope at 400× magnification. […] However, the treated cells lost the rounded shape and shrank in size at the highest dose of cucurbitacin B used (80 nM).

K562 = experiment: Cell proliferation assay using SRB, K562; type: cell-based; conditions: Homo sapiens, K562, 48 hours treatment, read-out: GI50 (growth inhibition)
Method: as §3, §4, §5

[10] = test system: Ras-GTP activation in K562 cells; experiment: GTPase pull-down assay (GST-Raf1-RBD), Ras-GTP content; type: cell-based, human; conditions: 50 μM, 2 minutes to 4 hours
Method: Lysate with 500 μg protein were used to determined the Ras-GTP content by the Glutathione S-transferase (GST)-RBD (Ras-binding domain of Raf) pull down assay. The treated and control cells were lysed in lysis buffer (25 mMTris-HCl, pH7.5, 150 mM NaCl, 5 mMMgCl2, 1% NP-40, 1 mM DTT and 5% glycerol) for 5 minutes at 4° C. Soluble cell lysates were obtained by centrifuged at 17000 g for 5 minutes. 500 μg cell lysate were collected and incubated with 80 μg GST-Raf1-RBD in 50 mM Tris-HCl, pH7.2, 150 mMNaCl, 0.5% Triton X-100, 5 mMMgCl2, 1 mMDTT and 10% glycerol for 1 hour at 4° C. The beads were washed with lysis buffer for 3 times and then resuspended and boiled in 2× sample buffer at 100° C. for 5 minutes. 25 μl supernatants were collected by centrifuged at 7200 g for 2 minutes and then resolved in 15% SDS-PAGE followed by western blot analysis using anti-Ras antibody.
as §7, with “15 μg cell lysates were subjected to western blot analysis for phosphorylation and total c-Raf, Mek1/2, Erk1/2.” left out

K562 cells [11] = experiment: Flow cytometry for cell cycle analysis (PI); type: cell-based, human; conditions: 80 nM, 48 hours, K562, serum starved 24 hours
Method: K562 cells were serum starved for 24 hours prior to cucurbitacin B treatment. After 48 hours of treatment, the cells were collected and rinsed twice with phosphate-buffer saline and fixed with 80% ice-cold ethanol for 1 hour at 4° C. overnight.
Then, the cells were stained with propidium iodine at 1 mg/ml for 15 minutes at room temperature. The stained cells were analyzed by flow cytometry (FACS Calibur BD Flow Cytometer)
Appropriate numbers of cell density were serum starved for 24 hours prior to treatment with different doses of cucurbitacin B for 2 days. The cell cycle analysis profile of K562 cells after cucurbitacin B treatment were detected using Flow Cytometry analysis after fixed with 80% ice-cold ethanol at 4° C. and then stained with PI for 15 minutes.

In the case of CC(=O)OC(C)(C)/C=C/C(=O)[C@](C)(O)C1[C@H](O)C[C@@]2(C)C3CC=C4C(C[C@H](O)C(=O)C4(C)C)[C@]3(C)C(=O)C[C@]12C (some centres unmarked) [cucurbitacin B], the “inhibition of activation of Erk1/2” value [1] is reported as “significantly inhibited”, the GI50 [2] is reported as 15.6 to 35.3 nM and the “cells in apoptotic population” value (K562 cells [3]) is reported as “over 50%”. For the same compound, the “cells in the necrotic population (late apoptotic and necrotic phase)” value (K562 cells [3]) was 10%, the “inhibition of activation of c-Raf” value [4] was “significantly inhibited” and the “time of peak inhibition of Stat3 activation” value [5] was 4 h. For the same compound, the “inhibition of Stat3 activation, time course” value ([5]; 10 minutes to 30 minutes) was “No significant change”, the “inhibition of Stat3 activation, time course” value ([5]; 1 hour treatment) was “inhibited Stat3 activation” and the “inhibition of Stat3 activation (phospho-Stat3)” value ([5]; 4 hours, only the highest of 1, 5, 50 μM) was “significant inhibited”. For the same compound, the “inhibition of activation of Elk-1” value [6] was “significantly inhibited”, the “inhibition of the Raf/Mek/Erk pathway” value [7] was “Complete inhibition” and the “inhibition of activation of Mek1/2” value [8] was “significantly inhibited”. For the same compound, the “change in cell morphology” value (K562 cells [9]; 20 nM and 40 nM) was “increase in cell size”, the “change in cell morphology” value (K562 cells [9]; 80 nM) was “shrinkage of cell size” and the GI50 (K562) was 15.6 nM. For the same compound, the “change of Ras-GTP activation” value [10] was “no significant change” and the “percentage of cells in the G2/M phase” value (K562 cells [11]) was 70%.
